Paper PMC3923439, “Anti-inflammatory properties of a novel peptide interleukin 1 receptor antagonist” (Journal of Neuroinflammation, 2014)
Positions of bridges follow the written chain, without caps; N, C: chain ends. Chains are numbered I, II in the order given. No end group written: not given here.

Columns and labels:
AMJ2-C8 macrophages = assay: TNF-α secretion from IL-1β-activated macrophages (L929 bioassay); type: cell-based, mouse; conditions: 1.2 pM IL-1β, 24 hours; TNF-α by L929 survival with actinomycin D; hydrocortisone at 100 μM
Method: A murine alveolar macrophage cell line, AMJ2-C8 (American Type Culture Collection, Borås, Sweden), was routinely grown at 37°C with 5% CO2 in DMEM supplemented with 5% (vol/vol) FCS, 0.5% (v/v) 2-[4-(2-hydroxyethyl)piperazin-1-yl]ethanesulfonic acid (HEPES) (Gibco BRL), 2 mM GlutaMAX, 100 U/ml penicillin and 100 μg/ml streptomycin.
AMJ2-C8 macrophages were seeded into six-well multidishes at a density of 2.5 × 10^5 cells/well, and sIL-1RI, IL-1Ra or various concentrations of Ilantide were added to the cultures. Treatment with 100 μM hydrocortisone (Sigma-Aldrich, Brøndby, Denmark) was used as a positive control. After 10-minute incubation at 37°C, 1.2 pM IL-1β or IFN-γ (R&D Systems) was added to activate the macrophages. L929 cells were seeded onto a 96-well plate (Nunc, Roskilde, Denmark) at a density 0.2 × 10^2 cells/ml. Both cell cultures were incubated for 24 hours at 37°C. Conditioned medium from macrophages was collected and added to the L929 cell cultures together with actinomycin D (0.6 μg/well; Sigma-Aldrich). TNF-α is known to induce classic apoptosis in L929 cells in the presence of actinomycin D [12]. After 24-hour incubation at 37°C, 20 μl of 3-(4,5-dimethylthiazol-2-yl)-5-(3-carboxymethoxyphenyl)-2-(4-sulfophenyl)-2H-tetrazolium (Promega, Madison, WI, USA) were added to each well and incubated at 37°C in the dark for 45 minutes, then measured in an ELISA reader at 490 nm. To calculate the amount of TNF-α in the conditioned medium, fibroblasts were treated with standard concentrations of TNF-α (R&D Systems).

[1] = test system: Cerebellar granule neurons; assay: Neurite outgrowth from cerebellar granule neurons; type: cell-based, rat; conditions: 7-day-old CGNs grown on fibroblast cells, 24 hours
Method: Cerebellar granule neurons (CGNs) were prepared from 7-day-old Wistar rats (from Charles River Laboratories, Sulzfeld, Germany; or from Hygind Møllegård Erik Møllegaard Hansen, Ejby, Denmark) as previously described. Briefly, the cerebella were cleared of meninges and blood vessels, roughly homogenized by chopping and trypsinized. The cells were washed in the presence of DNAse I and soybean trypsin inhibitor (Sigma-Aldrich, St Louis, MO, USA), and cellular debris was pelleted by centrifugation. The fibroblastoid mouse cell line L929 (LVN; European Collection of Cell Cultures, Porton Down, UK) was routinely grown at 37°C with 5% CO2 in DMEM supplemented with 10% (vol/vol) FCS, 2 mM GlutaMAX, 100 U/ml penicillin and 100 μg/ml streptomycin.
Cerebellar granule neurons were plated at a density of 1 × 10^5 cells/cm^2 on poly-L-lysine-coated, eight-well Permanox Lab-Tek chamber slides (Nunc) in Neurobasal-A medium supplemented with 2% (vol/vol) B27 (Gibco BRL), 0.5% (vol/vol) GlutaMAX, 100 U/ml penicillin and 100 μg/ml streptomycin. The CGN survival assay was performed as previously described. The neurite outgrowth assay was also performed as previously described.
Figure 6 Effect of Ilantide on neurite outgrowth from cerebellar granule neurons. Cerebellar granule neuron cultures were treated with interleukin 1 receptor antagonist (IL-1Ra) (A), soluble interleukin 1 receptor type I (sIL-1RI) (B), Ilantide-t (C) or IL-1β (D) for 24 hours. The cultures were fixed and immunostained with rabbit anti-rat growth-associated protein 43 (anti-GAP-43) primary antibodies and then with secondary Alexa Fluor 488 goat anti-rabbit antibodies. (E) Effect of IL-1β on neurite outgrowth induced by IL-1Ra. (F) Effect of IL-1β on neurite outgrowth induced by Ilantide-t. The results from three to four independent experiments are expressed as percentage ± SEM with untreated controls set at 100%, corresponding to an average neurite length of 19.3 ± 4.1 μm. *P < 0.05 and **P < 0.01 compared with untreated controls (A to D) or cultures treated with either IL-1Ra or Ilantide alone (E and F) by one-way analysis of variance followed by the Newman-Keuls post hoc test).

[2] = test system: double-Ig module (Ig1-Ig2) of NCAM; assay: Surface plasmon resonance, negative control protein; type: binding; conditions: SPR
Method: The binding analysis was performed using a Biacore 2000 instrument (GE Healthcare Life Sciences) that contained 150 mM NaCl as running buffer at 25°C with 10 mM sodium phosphate (pH 7.4). The flow rate was 5 μl/min during immobilization. Ilantide peptide, IL-1β or IL-1Ra was immobilized on a CM4 sensor chip according to the manufacturer’s instructions, after which the recombinant ectodomain of IL-1RI (R&D Systems) was injected. The neural cell adhesion molecule (NCAM) immunoglobulin modules 1 and 2 (Ig1 and Ig2) were used as a negative control protein [9]. The data were analyzed using nonlinear curve-fitting with the manufacturer’s software.

[3] = test system: HEK-Blue IL-1β cells (IL-1RI / NF-κB); assay: IL-1β-induced NF-κB activation, SEAP reporter; type: cell-based; conditions: 1.2 pM IL-1β, 24 hours, SEAP read at 600 nm, four independent experiments
Method: HEK-Blue IL-1β cells that contained an IL-1β-sensitive reporter (InvivoGen, San Diego, CA, USA) and HEK-Blue IL-6 cells that contained an IL-6-sensitive reporter (InvivoGen) were grown at 37°C with 5% CO2 in Dulbecco’s modified Eagle’s medium (DMEM) supplemented with 5% (vol/vol) fetal calf serum (FCS), 4.5 g/L glucose, 2 mM GlutaMAX medium, 100 U/ml penicillin, 100 μg/ml streptomycin (all obtained from Gibco BRL/Life Technologies, Taastrup, Denmark), 100 μg/ml zeocin, 200 μg/ml hygromycin and 100 μg/ml Normocin (all purchased from InvivoGen).
HEK-Blue IL-1β cells allow the monitoring of the activation of the NF-κB pathway specifically in response to IL-1β. They express a NF-κB-inducible secreted embryonic alkaline phosphatase (SEAP) reporter gene. The binding of IL-1β to its receptor IL-1RI on the surface of HEK-Blue IL-1β cells triggers a signaling cascade that leads to the activation NF-κB and the subsequent production of SEAP. HEK-Blue IL-1β cells were grown as described above. The cells were seeded onto a 96-well plate at a density 3.5 × 10^5 cells/ml. For the NF-κB activation assay, the cells were treated with 1.2 pM IL-1β alone or together with sIL-1RI, IL-1Ra or various concentrations of Ilantide. After 24 hours of incubation at 37°C, 150 μl of the cell supernatants were added to each well of a 96-well plate together with 50 μl of QUANTI-Blue (InvivoGen), incubated at 37°C for 40 minutes and measured in an enzyme-linked immunosorbent assay (ELISA) reader at 600 nm to determine the expression levels of reporter genes activated by NF-κB.

Substance	Inhibition of IL-1β-induced TNF-α secretion in macrophages (AMJ2-C8 macrophages)	Neurite outgrowth from CGNs [1]	Binding to double-Ig module of NCAM (negative control) [2]	Inhibition of NF-κB activation induced by IL-1β [3]
I: SGRKSSKMQAKK-NH2 / II: SGRKSSKMQAK / III: SGRKSSKMQA / IV: SGRKSSKMQA (amide I:11-IV:C, I:12-II:C, II:11-III:C; C-terminus assumed) [Ilantide-t]	significantly inhibited	significantly induced neurite outgrowth	no significant binding	dose-dependently inhibited
IL-1Ra: recombinant interleukin 1 receptor antagonist purchased from R&D Systems	significantly inhibited	significantly induced neurite outgrowth	no significant binding	dose-dependently inhibited
